Experiments:
[1] = target: T1, hPPAR γ (Homo sapiens, UniProt P37231); assay: Transient transfection (transactivation) assay in CV-1 cells, hPPAR gamma; type: cell-based; details: GAL4 chimeric receptor, SPAP reporter
T1 construct: expressed in transfected cells; host or cells: CV-1 cells
T1 sequence (P37231 238-503 limits assumed): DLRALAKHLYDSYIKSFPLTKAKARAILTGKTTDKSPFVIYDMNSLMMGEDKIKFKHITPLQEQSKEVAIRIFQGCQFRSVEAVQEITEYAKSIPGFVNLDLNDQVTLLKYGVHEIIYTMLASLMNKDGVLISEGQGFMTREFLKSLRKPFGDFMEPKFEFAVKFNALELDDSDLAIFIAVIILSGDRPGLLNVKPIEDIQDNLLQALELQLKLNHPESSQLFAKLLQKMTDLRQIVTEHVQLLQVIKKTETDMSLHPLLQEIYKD
Excerpt: (§1) Compounds were screened for functional potency in transient transfection assays in CV-1 cells for their ability to activate the PPAR subtypes (transactivation assay). A previously established chimeric receptor system was utilized to allow comparison of the relative transcriptional activity of the receptor subtypes on the same target gene and to prevent endogenous receptor activation from complicating the interpretation of results. […] The ligand binding domains for murine and human PPAR alpha, PPAR gamma, and PPAR delta were each fused to the yeast transcription factor GAL4 DNA binding domain. CV-1 cells were transiently transfected with expression vectors for the respective PPAR chimera along with a reporter construct containing five copies of the GAL4 DNA binding site driving expression of secreted placental alkalin phosphatase (SPAP) and beta-galactosidase. After 16 h, the medium was exchanged to DME medium supplemented with 10% delipidated fetal calf serum and th test compound at the appropriate concentration. After an additional 24 h, cell extracts were prepared and assayed for alkaline phosphatase and β-galactosidase activity. […] The positive control in the hPPAR alpha assays was 2-methyl-2-[4-{[(4-methyl-2-[4-trifluoromethylphenyl]-thiazol-5-yl-carbonyl)amino]methyl}-phenoxy]propionic acid. The positive control for PPAR delta assays was 2-{2-methyl-4-[({4-methyl-2-{trifluoromethyl)phenyl]-1,3-thiazol-5-yl}methyl)sulfanyl]phenoxy}acetic acid.

[2] = target: T2, hPPAR α (Homo sapiens, UniProt Q07869); assay: Transient transfection (transactivation) assay in CV-1 cells, hPPAR alpha; type: cell-based; details: GAL4 chimeric receptor, SPAP reporter
T2 construct: expressed in transfected cells; host or cells: CV-1 cells
T2 sequence (Q07869 239-466 limits assumed): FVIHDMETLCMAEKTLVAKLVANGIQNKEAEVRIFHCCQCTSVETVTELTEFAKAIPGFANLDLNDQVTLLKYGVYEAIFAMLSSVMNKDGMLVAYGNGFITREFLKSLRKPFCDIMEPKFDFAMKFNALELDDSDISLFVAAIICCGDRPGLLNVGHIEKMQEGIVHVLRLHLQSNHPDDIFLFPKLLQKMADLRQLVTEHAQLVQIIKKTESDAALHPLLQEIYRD
Excerpt: as §1

[3] = target: T3, hPPAR δ (Homo sapiens, UniProt Q03181); assay: Transient transfection (transactivation) assay in CV-1 cells, hPPAR delta; type: cell-based; details: GAL4 chimeric receptor, SPAP reporter
T3 construct: expressed in transfected cells; host or cells: CV-1 cells
T3 sequence (Q03181 211-439 limits assumed): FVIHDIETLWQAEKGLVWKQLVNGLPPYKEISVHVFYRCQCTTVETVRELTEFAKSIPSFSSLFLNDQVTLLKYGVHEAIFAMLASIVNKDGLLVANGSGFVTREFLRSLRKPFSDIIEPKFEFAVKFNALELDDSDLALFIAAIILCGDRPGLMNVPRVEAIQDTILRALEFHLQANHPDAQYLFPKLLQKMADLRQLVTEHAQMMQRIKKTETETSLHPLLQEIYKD
Excerpt: as §1

Structure (SMILES)	EC50 [1]	EC50 [2]	EC50 [3]	melting point
CC[C@H](Oc1ccc(OC(C)(C)C(=O)O)c(C)c1)c1sc(-c2ccc(C(F)(F)F)cc2)nc1C [Example 31, (S)-2-methyl-2-(2-methyl-4-{1-[4-methyl-2-(4-trifluoromethyl-phenyl)-thiazol-5-yl]propoxy}-phenoxy)-propionic acid]	660 nM	5 nM	1.7 nM	
Cc1cc(O[C@@H](C)c2sc(-c3ccc(C(F)(F)F)cc3)nc2C)ccc1OC(C)(C)C(=O)O [Example 9, (S)-2-methyl-2-(2-methyl-4-{1-[4-methyl-2-(4-trifluoromethylphenyl)-thiazol-5-yl]ethoxy}-phenoxy)-propionic acid]	7000 nM	16 nM	3 nM	
Cc1cc(OC(C)c2sc(-c3ccc(C(F)(F)F)cc3F)nc2C)ccc1OC(C)(C)C(=O)O (stereo not shown) [Example 19, 2-(4-{1-[2-(2-fluoro-4-trifluoromethyl-phenyl)-4-methyl-thiazol-5-yl]-ethoxy}-2-methyl-phenoxy)-2-methyl-propionic acid]				133 °C

Next, values leading:

EC50 [1]	EC50 [2]	EC50 [3]	melting point	Structure (SMILES)
240 nM	9 nM	1.5 nM		CC[C@@H](Oc1ccc(OC(C)(C)C(=O)O)c(C)c1)c1sc(-c2ccc(C(F)(F)F)cc2)nc1C [Example 29, (R)-2-methyl-2-(2-methyl-4-{1-[4-methyl-2-(4-trifluoromethyl-phenyl)thiazol-5-yl]propoxy}-phenoxy)-propionic acid]
300 nM	10 nM	0.7 nM		Cc1cc(O[C@H](C)c2sc(-c3ccc(C(F)(F)F)cc3)nc2C)ccc1OC(C)(C)C(=O)O [Example 11, (R)-2-methyl-2-(2-methyl-4-{1-[4-methyl-2-(4-trifluoromethylphenyl)-thiazol-5-yl]ethoxy}-phenoxy)-propionic acid]
